# Source: the supplement of paper PMC13380429
# Columns and labels:
# Settings in all cases: 72 h
# [1] = tested on: Caco-2; test: cell viability relative to DMSO; higher = less toxic
# [2] = tested on: Calu-3; test: as above
# [3] = tested on: HepG2; test: as above
# [4] = tested on: U2OS; test: as above
# [5] = tested on: Vero E6; test: as above
# [6] = tested on: Caco-2; test: relative viability EC50 (midpoint between 100% and the lowest measured viability); higher = less toxic
# [7] = tested on: Calu-3; test: as above
# [8] = tested on: HepG2; test: as above
# [9] = tested on: U2OS; test: as above
# [10] = tested on: Vero E6; test: as above
# [11] = tested on: Caco-2; test: drug sensitivity score (DSS) for viability; higher = more toxic; extreme values may be limits of the assay
# [12] = tested on: Calu-3; test: as above
# [13] = tested on: HepG2; test: as above
# [14] = tested on: U2OS; test: as above
# [15] = tested on: Vero E6; test: as above
SMILES,cell viability ([1]; 1 nM) [%],cell viability ([1]; 10 nM) [%],cell viability ([1]; 100 nM) [%],cell viability ([1]; 1000 nM) [%],cell viability ([1]; 10000 nM) [%],cell viability ([2]; 1 nM) [%],cell viability ([2]; 10 nM) [%],cell viability ([2]; 100 nM) [%],cell viability ([2]; 1000 nM) [%],cell viability ([2]; 10000 nM) [%],cell viability ([3]; 1 nM) [%],cell viability ([3]; 10 nM) [%],cell viability ([3]; 100 nM) [%],cell viability ([3]; 1000 nM) [%],cell viability ([3]; 10000 nM) [%],cell viability ([4]; 1 nM) [%],cell viability ([4]; 10 nM) [%],cell viability ([4]; 100 nM) [%],cell viability ([4]; 1000 nM) [%],cell viability ([4]; 10000 nM) [%],cell viability ([5]; 1 nM) [%],cell viability ([5]; 10 nM) [%],cell viability ([5]; 100 nM) [%],cell viability ([5]; 1000 nM) [%],cell viability ([5]; 10000 nM) [%],relative viability EC50 [6] [µM],relative viability EC50 [7] [µM],relative viability EC50 [8] [µM],relative viability EC50 [9] [µM],relative viability EC50 [10] [µM],drug sensitivity score [11],drug sensitivity score [12],drug sensitivity score [13],drug sensitivity score [14],drug sensitivity score [15]
CCCc1ncc(C[n+]2ccccc2C)c(N)n1 [amprolium],112,94.9,88.5,90.5,99.9,104,97.2,99.5,101,107,96.4,103,89.2,97.1,92.1,101,97.2,102,100,104,100,108,92.8,112,102,> 10,> 10,> 10,> 10,> 10,0.9,0,0,0,0
CCO[C@H]1O[C@@H]2O[C@@]3(C)CC[C@H]4[C@H](C)CC[C@@H]([C@H]1C)[C@@]24OO3 [artemotil],92.1,101,86.6,94.5,91.5,94.2,109,95.4,109,104,107,100,104,89.1,94.5,98.1,100,95.4,97.2,79.1,89.7,95.1,95.8,91.5,98,> 10,> 10,> 10,> 10,> 10,0,0,0.2,1,0
CC(=O)Oc1ccccc1C(=O)O [aspirin],92.4,89.3,81,80,89.7,102,90.1,94.1,92.6,101,95.2,100,93.8,104,109,96.5,93.5,104,98.3,103,90.7,96.7,90,96.2,108,> 10,> 10,> 10,> 10,> 10,3.8,0,0,0,0
CC(C)C(=O)OC[C@@]1(N=[N+]=[N-])O[C@@H](n2ccc(N)nc2=O)[C@H](OC(=O)C(C)C)[C@@H]1OC(=O)C(C)C [balapiravir],103,87,100,98.7,88.9,99,99.1,97,100,102,95.6,102,92.6,102,92.4,99.6,94.9,96,95.5,94.6,98.6,92.8,93.4,98.4,90.7,> 10,> 10,> 10,> 10,> 10,0,0,0,0,0
CC(C)(O)CC(=O)O [beta-hydroxy-beta-methylbutyrate],102,92.2,99.4,92.6,97.2,98.7,100,105,102,113,91.8,94.3,101,104,93.3,105,99.5,98.1,95.9,99.5,106,108,101,99.5,100,> 10,> 10,> 10,> 10,> 10,0,0,0,0,0
O=C(O)CCNC(=O)c1ccccc1 [betamipron],90.2,95.6,99.7,100,103,108,90.6,113,104,116,94.8,111,95.9,114,105,102,98,101,92.5,99.4,94.6,96.4,95.6,92.2,96.2,> 10,> 10,> 10,> 10,> 10,0,0,0,0,0
O=C(O)CCCC[C@@H]1SC[C@@H]2NC(=O)N[C@@H]21 [biotin],95.8,96.3,101,95.1,89.3,93.8,105,98,102,97.6,111,101,108,97.4,104,99.2,101,97.7,101,97.8,106,66.8,105,59.3,106,> 10,> 10,> 10,> 10,> 10,0.1,0,0,0,0
C[C@H](Oc1ccc(S(C)(=O)=O)cc1C(=O)N1CCN(c2ncc(C(F)(F)F)cc2F)CC1)C(F)(F)F [bitopertin],100,98.6,92.5,94.2,91.1,97.1,99,95.8,97.8,106,94.7,95.1,96.2,104,98.4,98.9,100,101,95.3,101,103,95.6,96.6,100,97.5,> 10,> 10,> 10,> 10,> 10,0,0,0,0,0
Oc1c(Br)cc(Br)c2cccnc12 [broxyquinoline],89.4,92.5,93.2,98.9,112,108,82.2,90.7,97.6,99,84.2,108,110,100,87.6,96,98.7,101,98.2,94.6,102,94.1,102,110,99,> 10,> 10,> 10,> 10,> 10,0,0,0,0,0
CCCCOc1ccc(CC(=O)NO)cc1 [bufexamac],91.6,89.5,96.7,90.6,92.8,95.8,91.2,104,98.2,99.3,95,94.6,87.5,99.9,98.2,100,97.8,98.1,96,99,81.9,103,89.2,96.1,85.1,> 10,> 10,> 10,> 10,> 10,0,0,0,0,0.1
CCCCc1ccc(C(N)=O)nc1 [bupicomide],94.6,81.3,94,90.8,88,97.9,84.9,103,84.7,99.3,93.8,103,92.6,116,114,99.9,94.5,103,93.6,102,96.6,99.9,96,100,107,> 10,> 10,> 10,> 10,> 10,0,0,0,0,0
